ChEMBL document CHEMBL1133278, “1-[2-[(Heteroarylmethoxy)aryl]carbamoyl]indolines are selective and orally active 5-HT2C receptor inverse agonists” (Bioorg Med Chem Lett, 2000)

How the values were obtained:
[1] = target: 5-hydroxytryptamine receptor 2A (Homo sapiens, UniProt P28223); test: In vitro binding affinity at human cloned 5-hydroxytryptamine 2A receptor of HEK293 cells by [3H]ketanserin displacement.; assay type: cell-based
[2] = target: Serotonin receptor (2b and 2c) (Homo sapiens) (UniProt P41595+P28335); test: Selectivity at serotonin 5-HT 2C receptor compared to serotonin 5-HT 2B receptor; assay type: protein assay
[3] = target: Serotonin 2 receptors; 5-HT2a & 5-HT2c (Homo sapiens) (UniProt P28223+P28335); test: Selectivity at 5-HT 2C receptor compared to serotonin 5-HT 2A receptor; assay type: protein assay
Sequence of Serotonin 2 receptors; 5-HT2a & 5-HT2c (Homo sapiens) (P28223 whole entry, looked up, one chain of several): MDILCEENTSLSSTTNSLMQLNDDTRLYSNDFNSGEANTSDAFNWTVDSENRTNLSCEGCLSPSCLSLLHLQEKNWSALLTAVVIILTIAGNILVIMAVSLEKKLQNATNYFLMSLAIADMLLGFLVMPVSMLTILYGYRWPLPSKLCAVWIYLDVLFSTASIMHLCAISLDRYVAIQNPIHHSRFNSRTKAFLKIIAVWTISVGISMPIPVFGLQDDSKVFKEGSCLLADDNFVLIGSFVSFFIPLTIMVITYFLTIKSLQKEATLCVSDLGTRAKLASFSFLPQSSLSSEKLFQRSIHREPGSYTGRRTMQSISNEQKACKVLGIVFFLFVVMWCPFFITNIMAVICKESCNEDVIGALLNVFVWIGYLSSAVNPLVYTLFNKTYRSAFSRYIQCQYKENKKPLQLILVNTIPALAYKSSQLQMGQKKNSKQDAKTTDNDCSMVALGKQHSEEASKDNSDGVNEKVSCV

[4] = target: T1, 5-hydroxytryptamine receptor 2C (Homo sapiens, UniProt P28335); test: In vitro binding affinity at human cloned 5-hydroxytryptamine 2C receptor of HEK293 cells by [3H]mesulergine displacement.; assay type: cell-based
T1 sequence (P28335 whole entry): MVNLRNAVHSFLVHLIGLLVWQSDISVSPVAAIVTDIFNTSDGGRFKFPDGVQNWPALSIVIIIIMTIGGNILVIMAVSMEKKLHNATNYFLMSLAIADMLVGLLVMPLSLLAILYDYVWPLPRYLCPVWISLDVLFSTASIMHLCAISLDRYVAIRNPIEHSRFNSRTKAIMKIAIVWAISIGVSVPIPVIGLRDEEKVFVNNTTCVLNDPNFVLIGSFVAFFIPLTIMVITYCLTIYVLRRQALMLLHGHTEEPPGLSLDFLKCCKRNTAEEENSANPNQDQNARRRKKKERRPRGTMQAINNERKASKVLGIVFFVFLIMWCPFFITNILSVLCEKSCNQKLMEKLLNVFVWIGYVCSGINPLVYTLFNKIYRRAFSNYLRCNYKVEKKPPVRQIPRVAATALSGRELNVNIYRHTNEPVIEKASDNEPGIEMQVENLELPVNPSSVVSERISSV

[5] = target: 5-hydroxytryptamine receptor 2B (Homo sapiens, UniProt P41595); test: In vitro binding affinity at human cloned 5-hydroxytryptamine 2B receptor of HEK293 cells by [3H]5-HT displacement.; assay type: cell-based
Sequence of 5-hydroxytryptamine receptor 2B (P41595 whole entry): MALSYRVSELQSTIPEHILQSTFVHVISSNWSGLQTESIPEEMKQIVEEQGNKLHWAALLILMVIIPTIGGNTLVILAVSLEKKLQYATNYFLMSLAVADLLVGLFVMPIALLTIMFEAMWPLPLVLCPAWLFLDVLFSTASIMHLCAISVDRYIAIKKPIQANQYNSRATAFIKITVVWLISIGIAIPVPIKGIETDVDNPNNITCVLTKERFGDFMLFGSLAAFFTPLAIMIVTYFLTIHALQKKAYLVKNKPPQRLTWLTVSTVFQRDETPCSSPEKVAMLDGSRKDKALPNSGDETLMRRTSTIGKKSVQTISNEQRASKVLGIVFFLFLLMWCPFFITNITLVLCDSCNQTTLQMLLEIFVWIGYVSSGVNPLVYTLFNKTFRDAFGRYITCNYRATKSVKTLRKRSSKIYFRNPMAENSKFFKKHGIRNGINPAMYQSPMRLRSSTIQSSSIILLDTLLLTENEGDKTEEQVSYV

Rattus norvegicus [6] = test: Dose required to reverse mCPP induced hypolocomotion by 50% at 7 mg/kg, ip administration 30 min pretest in rat; assay type: functional; details: po, 0.5 h, read-out: ID50 (the source's name)
Rattus norvegicus [7] = test: Percent reversal of mCPP induced hypolocomotion after peroral administration at 5 mg/kg in rat; assay type: functional; details: route oral

Sequence of 5-hydroxytryptamine receptor 2A (P28223 whole entry): as the sequence (P28223 whole entry, looked up, one chain of several) above

Cc1cc2c(cc1C(F)(F)F)N(C(=O)Nc1ccc(OCCc3ccccn3)nc1)CC2
Ki [1]: 2000 nM
Selectivity [2]: 2
Selectivity [3]: 200
Ki [4]: 10 nM
Ki [5]: 20 nM

O=C(Nc1ccc(OCc2ccccn2)nc1)N1CCc2cc(C(F)(F)F)ccc21
Ki [1]: 5010 nM
Selectivity [2]: 60
Selectivity [3]: 800
ED50 (Rattus norvegicus [6]): 1.6 mg/kg
Ki [4]: 6.31 nM
Ki [5]: 398 nM

Cc1cccc(COc2ccc(NC(=O)N3CCc4cc(C)c(C(F)(F)F)cc43)cn2)n1
Ki [1]: 1000 nM
Selectivity [2]: 4
Selectivity [3]: 160
Ki [4]: 6.31 nM
Ki [5]: 25.1 nM

Cc1cc2c(cc1Cl)N(C(=O)Nc1ccc(OCc3nccn3C)nc1)CC2
Ki [1]: 251 nM
Selectivity [2]: 2.5
Selectivity [3]: 50
Ki [4]: 5.01 nM
Ki [5]: 12.6 nM

Cc1cc2c(cc1Cl)N(C(=O)Nc1ccc(OCc3cccnc3)nc1)CC2
Ki [1]: > 794 nM
Selectivity [2]: 1
Selectivity [3]: > 30
Ki [4]: 25.1 nM
Ki [5]: 25.1 nM

Cc1cc2c(cc1C(F)(F)F)N(C(=O)Nc1ccc(OCc3cnccn3)nc1)CC2
Ki [1]: 316 nM
Selectivity [2]: 20
Selectivity [3]: 630
Ki [4]: 0.501 nM
Ki [5]: 10 nM
Reversal (Rattus norvegicus [7]): 58%

O=C(Nc1ccc(OCc2ccccn2)nc1)N1CCc2cc(Cl)ccc21
Ki [1]: > 5010 nM
Selectivity [2]: 30
Selectivity [3]: > 160
Ki [4]: 31.6 nM
Ki [5]: 1000 nM

O=C(Nc1ccc(OCc2ccccn2)nc1)N1CCc2cc(Br)ccc21
Ki [1]: 2510 nM
Selectivity [2]: 30
Selectivity [3]: 160
ED50 (Rattus norvegicus [6]): 2.4 mg/kg
Ki [4]: 15.8 nM
Ki [5]: 501 nM

Cc1cc2c(cc1Cl)N(C(=O)Nc1ccc(OCc3nccs3)nc1)CC2
Ki [1]: > 794 nM
Selectivity [2]: 20
Selectivity [3]: > 160
Ki [4]: 5.01 nM
Ki [5]: 100 nM
Reversal (Rattus norvegicus [7]): 2%

Cc1cc2c(cc1C(F)(F)F)N(C(=O)Nc1ccc(OCc3ccccn3)nn1)CC2
Ki [1]: 251 nM
Selectivity [2]: 15
Selectivity [3]: 50
Ki [4]: 5.01 nM
Ki [5]: 79.4 nM

Cc1cc2c(cc1C(F)(F)F)N(C(=O)Nc1ccc(OCc3ccccn3)cc1)CC2
Ki [1]: 398 nM
Selectivity [2]: 10
Selectivity [3]: 160
Ki [4]: 2.51 nM
Ki [5]: 25.1 nM
Reversal (Rattus norvegicus [7]): 84%

Cc1cc2c(cc1C(F)(F)F)N(C(=O)Nc1ccc(COc3ccccn3)nc1)CC2
Ki [1]: 100 nM
Selectivity [2]: 40
Selectivity [3]: 20
Ki [4]: 5.01 nM
Ki [5]: 200 nM

Cc1cc2c(cc1C(F)(F)F)N(C(=O)Nc1cnc(OCc3ccccn3)c(C)c1)CC2
Ki [1]: 39.8 nM
Selectivity [2]: 20
Selectivity [3]: 100
ED50 (Rattus norvegicus [6]): 0.3 mg/kg
Ki [4]: 0.398 nM
Ki [5]: 7.94 nM

Cc1cc2c(cc1C(F)(F)F)N(C(=O)Nc1ccc(OCc3ncccc3C)nc1)CC2
Ki [1]: 158 nM
Selectivity [2]: 4
Selectivity [3]: 40
Ki [4]: 3.98 nM
Ki [5]: 15.8 nM

Cc1cc2c(cc1C(F)(F)F)N(C(=O)Nc1ccc(CCc3ccccn3)nc1)CC2
Ki [1]: 158 nM
Selectivity [2]: 6
Selectivity [3]: 50
Ki [4]: 3.16 nM
Ki [5]: 20 nM

Cc1cc2c(cc1C(F)(F)F)N(C(=O)Nc1ccc(OCc3ccccn3)nc1)CC2
Ki [1]: 631 nM
Selectivity [2]: 60
Selectivity [3]: 1300
ED50 (Rattus norvegicus [6]): 1 mg/kg
Ki [4]: 0.501 nM
Ki [5]: 31.6 nM

O=C(Nc1ccc(OCc2ccccn2)nc1)N1CCc2c(Cl)cccc21
Ki [1]: 5010 nM
Selectivity [2]: 13
Selectivity [3]: 60
Ki [4]: 79.4 nM
Ki [5]: 1000 nM

Cc1cc2c(cc1C(F)(F)F)N(C(=O)Nc1ccc(OCc3cncn3C)nc1)CC2
Ki [1]: 100 nM
Selectivity [2]: 2
Selectivity [3]: 25
Ki [4]: 3.98 nM
Ki [5]: 6.31 nM

Cc1cc2c(cc1Cl)N(C(=O)Nc1ccc(OCc3ccncc3)nc1)CC2
Ki [1]: 79.4 nM
Selectivity [2]: 6
Selectivity [3]: 60
Ki [4]: 1.26 nM
Ki [5]: 7.94 nM

Cc1cc2c(cc1Cl)N(C(=O)Nc1ccc(OCc3ccccn3)nc1)CC2
Ki [1]: > 794 nM
Selectivity [2]: 40
Selectivity [3]: > 320
Ki [4]: 2.51 nM
Ki [5]: 100 nM
Reversal (Rattus norvegicus [7]): 41%

O=C(Nc1ccc(OCc2ccccn2)nc1)N1CCc2ccc(C(F)(F)F)cc21
Ki [1]: 251 nM
Selectivity [2]: 30
Selectivity [3]: 30
Ki [4]: 7.94 nM
Ki [5]: 251 nM
